# Data as given in patent publication US12582654B2, “Cyano-substituted pyridine and cyano-substituted pyrimidine compound and preparation method therefor and application thereof” (BEIJING SCITECH-MQ PHARMACEUTICALS LIMITED, priority 2019, dated 2026).
# What was measured:
# FGFR4 kinase = FGFR4 kinase (Homo sapiens, UniProt P22455); assay: Inhibition of FGFR4 kinase activity (ULight-labeled JAK-1 peptide, EU665/EU615 reading); assay type: biochemical; conditions: FGFR4 kinase 3.85 nM, ATP 100 μM, enzymatic reaction 2 hours
# In short: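 TR-FRET kinase assay using 3.85 nM FGFR4, 100 μM ATP and 100 nM ULight-JAK-1 (Tyr1023) peptide; 5 min enzyme–compound preincubation, then 2 h at room temperature. Compounds at 11 3-fold dilutions from 2.5 μM down to 0.042 nM, 1% DMSO. IC50 from EU665/EU615 ratio inhibition curves.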
# FGFR4 V550L kinase = FGFR4 V550L kinase (Homo sapiens, UniProt P22455, V550L); assay: Inhibition of FGFR4 V550L mutant kinase activity (ULight-labeled PolyGT, EU665/EU615 reading); assay type: biochemical; conditions: FGFR4 V550L kinase 1 nM, ATP 10 μM, enzymatic reaction 2 hours
# In short: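 TR-FRET kinase assay: 1 nM FGFR4 V550L, 10 μM ATP, 100 nM ULight-PolyGT substrate, 2 h at room temperature after 5 min compound–enzyme preincubation, 1% DMSO. Compound tested as 11-point 3-fold dilution from 2.5 μM to 0.042 nM final. Signal as EU665/EU615 ratio; IC50 fitted from % inhibition.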
# Ba/F3 ETV6-FGFR4 cells = biological target: T1, Ba/F3 ETV6-FGFR4 cells (Homo sapiens, UniProt P22455); assay: Inhibition of cell proliferation (CCK-8), Ba/F3 ETV6-FGFR4 cells; assay type: cell-based; conditions: 72 hours of incubation, read-out: Ba/F3 ETV6-FGFR4 IC50
# T1 construct: fused on or other part: N-terminal part of ETV6 (TEL), the oligomerising partner that makes the FGFR4 kinase constitutively active; P41212 (Transcription factor ETV6)
# In short: (§1)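 Ba/F3 cells expressing ETV6-FGFR4 or ETV6-FGFR4-V550L exposed for 72 h to 9 concentrations from 4-fold serial dilution (0.25% DMSO final). Viability by CCK-8, OD 450 nm after 1–2 h at 37 °C, relative to untreated and cell-free blanks; IC50 from curve fitting.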
# [1] = biological target: T2, Ba/F3 ETV6-FGFR4-V550L cells (Homo sapiens, UniProt P22455, V550L, cells depend on it); assay: Inhibition of cell proliferation (CCK-8), Ba/F3 ETV6-FGFR4-V550L cells; assay type: cell-based; conditions: 72 hours of incubation, read-out: Ba/F3 ETV6-FGFR4-V550L IC50
# T2 construct: fused on or other part: N-terminal part of ETV6 (TEL), the oligomerising partner of the fusion; already named as the first entry; P41212 (Transcription factor ETV6)
# In short: as §1
# Chain of FGFR4 kinase (P22455 22-802): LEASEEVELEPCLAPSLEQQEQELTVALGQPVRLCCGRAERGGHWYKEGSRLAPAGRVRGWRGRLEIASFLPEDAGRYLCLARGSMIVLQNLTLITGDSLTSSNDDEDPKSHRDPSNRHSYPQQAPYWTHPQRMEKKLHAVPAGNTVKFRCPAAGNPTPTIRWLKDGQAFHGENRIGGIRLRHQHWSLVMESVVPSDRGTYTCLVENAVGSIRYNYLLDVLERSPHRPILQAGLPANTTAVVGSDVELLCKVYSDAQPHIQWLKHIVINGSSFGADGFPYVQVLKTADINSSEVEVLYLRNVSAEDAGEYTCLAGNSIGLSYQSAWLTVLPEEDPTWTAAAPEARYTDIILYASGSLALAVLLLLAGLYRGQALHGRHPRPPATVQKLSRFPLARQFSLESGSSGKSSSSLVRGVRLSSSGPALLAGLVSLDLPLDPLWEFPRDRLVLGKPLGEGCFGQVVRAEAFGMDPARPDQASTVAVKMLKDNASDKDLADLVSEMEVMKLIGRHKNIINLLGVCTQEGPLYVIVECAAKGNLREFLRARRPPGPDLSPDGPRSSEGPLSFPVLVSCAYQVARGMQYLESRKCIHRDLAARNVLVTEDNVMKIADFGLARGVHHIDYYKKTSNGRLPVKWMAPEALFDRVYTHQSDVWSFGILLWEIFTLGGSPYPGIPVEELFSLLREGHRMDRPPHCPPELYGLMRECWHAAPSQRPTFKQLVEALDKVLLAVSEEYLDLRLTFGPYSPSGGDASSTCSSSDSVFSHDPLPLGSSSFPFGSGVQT
# Chain of FGFR4 V550L kinase (P22455 22-802 V550L): as the sequence (P22455 22-802) above, with V529L counted along it
# T2 sequence (P22455 whole entry V550L, the tested form may be a part): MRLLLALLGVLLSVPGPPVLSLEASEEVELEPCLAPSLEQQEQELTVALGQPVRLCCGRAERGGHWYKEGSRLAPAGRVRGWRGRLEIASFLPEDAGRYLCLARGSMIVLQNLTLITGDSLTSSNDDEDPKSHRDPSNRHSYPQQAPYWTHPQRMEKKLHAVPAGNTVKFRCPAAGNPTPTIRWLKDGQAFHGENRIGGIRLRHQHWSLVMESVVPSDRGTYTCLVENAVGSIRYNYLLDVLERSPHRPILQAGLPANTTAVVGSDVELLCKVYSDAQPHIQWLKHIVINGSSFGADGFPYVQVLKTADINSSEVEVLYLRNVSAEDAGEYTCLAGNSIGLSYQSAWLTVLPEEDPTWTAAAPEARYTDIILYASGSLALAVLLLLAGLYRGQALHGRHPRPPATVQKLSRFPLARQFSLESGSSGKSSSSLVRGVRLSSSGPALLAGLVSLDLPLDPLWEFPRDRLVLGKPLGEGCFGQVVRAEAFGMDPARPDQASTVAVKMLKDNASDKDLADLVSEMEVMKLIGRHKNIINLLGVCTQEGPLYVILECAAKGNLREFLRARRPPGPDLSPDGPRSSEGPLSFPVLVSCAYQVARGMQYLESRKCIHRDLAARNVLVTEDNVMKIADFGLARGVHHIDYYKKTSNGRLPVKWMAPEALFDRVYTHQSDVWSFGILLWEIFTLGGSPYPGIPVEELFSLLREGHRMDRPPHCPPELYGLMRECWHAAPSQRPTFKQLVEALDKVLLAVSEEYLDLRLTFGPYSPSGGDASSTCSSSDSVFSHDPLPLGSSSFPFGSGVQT
# T1 sequence (P22455 whole entry, change not shown, the tested form may be a part): as the sequence (P22455 whole entry V550L, the tested form may be a part) above, with L550V counted along it
SMILES,IC50 (FGFR4 kinase),IC50 (FGFR4 V550L kinase),GI50 (Ba/F3 ETV6-FGFR4 cells),GI50 [1]
"C=CC(=O)Nc1cc(N2CCC(N3CCN(C)C(=O)C3)CC2)ccc1Nc1ncc(C#N)c(Nc2ccccc2OC(C)C)n1 [Example 43, N-(2-((5-cyano-4-((2-isopropoxyphenyl)amino)pyrimidin-2-yl)amino)-5-(4-(4-methyl-3-oxopiperazin-1-yl)piperidin-1-yl)phenyl) acrylamide]",10 to 50 nM,10 to 50 nM,≤ 10 nM,≤ 10 nM
"C=CC(=O)Nc1cc(N2CCC(N3CCN(C)C(=O)C3)CC2)c(F)cc1Nc1ncc(C#N)c(Nc2ccccc2OC(C)C)n1 [Example 44, N-(2-((5-cyano-4-((2-isopropoxyphenyl)amino)pyrimidin-2-yl)amino)-4-fluoro-5-(4-(4-methyl-3-oxopiperazin-1-yl)piperidin-1-yl)phenyl) acrylamide]",10 to 50 nM,10 to 50 nM,≤ 10 nM,≤ 10 nM
"C=CC(=O)Nc1cc(N2CCC(N3CCN(C)C(=O)C3)CC2)ccc1Nc1ncc(C#N)c(Nc2ccc(F)cc2OC(C)C)n1 [Example 45, N-(2-((5-cyano-4-((4-fluoro-2-isopropoxyphenyl)amino)pyrimidin-2-yl)amino)-5-(4-(4-methyl-3-oxopiperazin-1-yl)piperidin-1-yl)phenyl) acrylamide]",10 to 50 nM,10 to 50 nM,≤ 10 nM,≤ 10 nM
"C=CC(=O)Nc1cc(N2CCC(N3CCN(C)CC3=O)CC2)ccc1Nc1ncc(C#N)c(Nc2ccccc2OC(C)C)n1 [Example 46, N-(2-((5-cyano-4-((2-isopropoxyphenyl)amino)pyrimidin-2-yl)amino)-5-(4-(4-methyl-2-oxopiperazin-1-yl)piperidin-1-yl)phenyl) acrylamide]",10 to 50 nM,10 to 50 nM,≤ 10 nM,≤ 10 nM
"C=CC(=O)Nc1cc(N2CCC(N3CCN(C)CC3=O)CC2)ccc1Nc1ncc(C#N)c(Nc2ccc(F)cc2OC(C)C)n1 [Example 47, N-(2-((5-cyano-4-((4-fluoro-2-isopropoxyphenyl)amino)pyrimidin-2-yl)amino)-5-(4-(4-methyl-2-oxopiperazin-1-yl)piperidin-1-yl)phenyl) acrylamide]",10 to 50 nM,10 to 50 nM,≤ 10 nM,≤ 10 nM
"C=CC(=O)Nc1cc(N2CCC(N3CCN(C)CC3=O)CC2)c(F)cc1Nc1ncc(C#N)c(Nc2ccccc2OC(C)C)n1 [Example 48, N-(2-((5-cyano-4-((2-isopropoxyphenyl)amino)pyrimidin-2-yl)amino)-4-fluoro-5-(4-(4-methyl-2-oxopiperazin-1-yl)piperidin-1-yl)phenyl) acrylamide]",10 to 50 nM,10 to 50 nM,≤ 10 nM,≤ 10 nM
"C=CC(=O)Nc1cc(N2CCN(C3CCN(C)CC3)CC2)ccc1Nc1ncc(C#N)c(Nc2ccccc2OC(C)C)n1 [Example 49, N-(2-((5-cyano-4-((2-isopropoxyphenyl)amino)pyrimidin-2-yl)amino)-5-(4-(1-methylpiperidin-4-yl)piperazin-1-yl)phenyl) acrylamide]",≤ 10 nM,≤ 10 nM,≤ 10 nM,≤ 10 nM
"C=CC(=O)Nc1cc(N2CCC(N3CCN(C(C)=O)CC3)CC2)ccc1Nc1ncc(C#N)c(Nc2ccccc2OC(C)C)n1 [Example 50, N-(5-(4-(4-acetylpiperazin-1-yl)piperidin-1-yl)-2-((5-cyano-4-((2-isopropoxyphenyl)amino)pyrimidin-2-yl)amino)phenyl) acrylamide]",10 to 50 nM,≤ 10 nM,≤ 10 nM,≤ 10 nM
"C=CC(=O)Nc1cc(N2CCC(N3CCN(S(C)(=O)=O)CC3)CC2)ccc1Nc1ncc(C#N)c(Nc2ccccc2OC(C)C)n1 [Example 51, N-(2-((5-cyano-4-((2-isopropoxyphenyl)amino)pyrimidin-2-yl)amino)-5-(4-(4-(methylsulfonyl)piperazin-1-yl)piperidin-1-yl)phenyl) acrylamide]",100 to 1000 nM,10 to 50 nM,≤ 10 nM,≤ 10 nM
"C=CC(=O)Nc1cc(N2CCC(N3CCN(C)CC3)CC2)ccc1Nc1ncc(C#N)c(Nc2ccc(C(=O)O)cc2OC(C)C)n1 [Example 52, 4-((2-((2-acrylamido-4-(4-(4-methylpiperazin-1-yl)piperidin-1-yl)phenyl)amino)-5-cyanopyrimidin-4-yl)amino)-3-isopropoxybenzoic acid]",≤ 10 nM,≤ 10 nM,100 to 1000 nM,100 to 1000 nM
"C=CC(=O)Nc1cc(N2CCC(N3CCN(C)CC3)CC2)c(OC)cc1Nc1ncc(C#N)c(Nc2ccccc2OC(C)C)n1 [Example 53, N-(2-((5-cyano-4-((2-isopropoxyphenyl)amino)pyrimidin-2-yl)amino)-4-methoxy-5-(4-(4-methylpiperazin-1-yl)piperidin-1-yl)phenyl) acrylamide]",50 to 100 nM,≤ 10 nM,≤ 10 nM,≤ 10 nM
C=CC(=O)Nc1cc(N(C)CCN(C)C)ccc1Nc1ncc(C#N)c(Nc2ccccc2OC(C)C)n1 [Example 54],10 to 50 nM,≤ 10 nM,≤ 10 nM,≤ 10 nM
"C=CC(=O)Nc1cc(N(C)CCN(C)C)c(OC)cc1Nc1ncc(C#N)c(Nc2ccccc2OC(C)C)n1 [Example 55, N-(2-((5-cyano-4-((2-isopropoxyphenyl)amino)pyrimidin-2-yl)amino)-5-((2-(dimethylamino)ethyl)(methyl)amino)-4-methoxyphenyl) acrylamide]",10 to 50 nM,≤ 10 nM,≤ 10 nM,≤ 10 nM
"C=CC(=O)Nc1cc(N2CCC(N(C)CCOC)CC2)ccc1Nc1ncc(C#N)c(Nc2ccccc2OC(C)C)n1 [Example 56, N-(2-((5-cyano-4-((2-isopropoxyphenyl)amino)pyrimidin-2-yl)amino)-5-(4-((2-methoxyethyl) (methyl)amino)piperidin-1-yl)phenyl) acrylamide]",10 to 50 nM,≤ 10 nM,≤ 10 nM,≤ 10 nM
"C=CC(=O)Nc1cc(N2CCC(N(C)CCN(C)C)CC2)ccc1Nc1ncc(C#N)c(Nc2ccccc2OC(C)C)n1 [Example 57, N-(2-((5-cyano-4-((2-isopropoxyphenyl)amino)pyrimidin-2-yl)amino)-5-(4-((2-(dimethylamino)ethyl)(methyl)amino)piperidin-1-yl)phenyl) acrylamide]",10 to 50 nM,≤ 10 nM,≤ 10 nM,≤ 10 nM
"C=CC(=O)Nc1cc(N2CCC(N3CCN(CCOC)CC3)CC2)ccc1Nc1ncc(C#N)c(Nc2ccccc2OC(C)C)n1 [Example 58, N-(2-((5-cyano-4-((2-isopropoxyphenyl)amino)pyrimidin-2-yl)amino)-5-(4-(4-(2-methoxyethyl)piperazin-1-yl)piperidin-1-yl)phenyl) acrylamide]",10 to 50 nM,≤ 10 nM,≤ 10 nM,≤ 10 nM
"C=CC(=O)Nc1cc(N2CCC(N3CCN(CCO)CC3)CC2)ccc1Nc1ncc(C#N)c(Nc2ccccc2OC(C)C)n1 [Example 59, N-(2-((5-cyano-4-((2-isopropoxyphenyl)amino)pyrimidin-2-yl)amino)-5-(4-(4-(2-hydroxyethyl)piperazin-1-yl)piperidin-1-yl)phenyl) acrylamide]",10 to 50 nM,≤ 10 nM,≤ 10 nM,≤ 10 nM
